Results published in patent US20190018003A1, “TUMOR DISCRIMINATION METHOD, DIAGNOSTIC AGENT FOR TUMOR, AND SENSITIZER FOR TUMOR DIAGNOSIS” (TOTO LTD., priority 2017, published 2019).

Test system: T24 urinary bladder cancer cells
Experiment: Fluorescence enhancement in T24 cells by simultaneous administration of fluorescent dye (ALA) and particles
Assay type: cell-based, human
Conditions: Example 8, administration of fluorescent dye only, immediately after observation light irradiation
Experimental: An aqueous ALA solution (50 mmol/l) was mixed into an MEM medium (MEM, GlutaMAX™ supplement (Thermo Fisher Scientific)) to form a 4 mmol/l ALA solution. Further, an aqueous solution of light scattering particles (2) (ii) was mixed into an MEM medium to form light scattering particle solutions of 0.001, 0.002, and 0.02 w/v %.
Evaluation was performed as follows. The medium of the T24 cells on a 6-well plate, obtained in Example 3, was removed by an aspirator, and thereto was added 2 ml of PBS (−) (Thermo Fisher Scientific). Once again, PBS (−) was removed by an aspirator, thereto was added 2 ml of a mixed solution obtained by mixing 1 ml of the ALA solution and 1 ml of the light scattering particle solution, and the system was cultured under conditions of 3TC and 5 v/v % CO2 for 2 hours. Then, the mixed solution of the cells on the 6-well plate was removed by an aspirator, thereto was added 2 ml of HBSS (−) (Thermo Fisher Scientific) to wash the residue, HBSS (−) was removed again by an aspirator, to the residue was added 2 ml of HBSS (−), and the solution was used for detection.
Detection of fluorescence was performed in the same manner as in Example 4 by using an inverted fluorescence microscope and, from the images acquired, fluorescence intensities were obtained and relative fluorescence intensities were calculated.

`NCC(=O)CCC(=O)O` [fluorescent dye, 5-aminolevulinic acid] gave a Relative fluorescence intensity of 1.0.
